Test results published in patent US20170045513A1, “METHODS OF DIAGNOSING CELIAC DISEASE USING IP-10” (ImmusanT, Inc., priority 2014, published 2017).
Non-standard residues stand in square brackets, D forms with d. pGlu = O=C1CC[C@@H](C(=O)O)N1

Key:
Format in all cases: cell-based, human
gluten-reactive T cells [1] = assay: Overnight IFNγ ELISpot assay with fresh PBMC; conditions: for Percent of maximal response to individual gluten peptides, ELISp: after oral gluten challenge; for IFNγ ELISpot % max Mean: n = 5, blood after oral gluten challenge, individual peptides 5 μM (Peptide 2* of P14, Pepscan: 10 μg/mL (5.45 μM))
How it was run: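 Read-out is IFNγ spot-forming units per well, counted automatically after overnight culture of fresh PBMC (0.4 million/well) with single peptides (duplicate) or pools (triplicate). Donors: HLA-DQ2.5+ celiac patients on gluten-free diet, bled pre- and day 6 after 3-day oral gluten challenge.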

gluten-reactive T cells [2] = assay: 96-well plate whole blood cytokine release, IFNγ by MAGPIX multiplex bead assay; conditions: for Percent of maximal response to individual gluten peptides, IFNg: after oral gluten challenge; for IFNγ WB MAGPIX % max Mean: n = 8, blood after oral gluten challenge, individual peptides 5 μM (Peptide 2* of P14, Pepscan: 10 μg/mL (5.45 μM))
gluten-reactive T cells [3] = assay: Cytokine release assays taken together (IFNγ ELISpot, whole blood IFNγ and IP-10, in-tube IFNγ ELISA); conditions: blood collected after oral gluten challenge
How it was run: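 Whole blood with peptides (P3 0.05-50 μg/mL; P13/P14 0.025-25 μM; […]), 24 h, 37 °C; plasma IFNγ/IP-10 by multiplex beads. Tube assay: 1 mL blood with P3 or CEF, 24 h, plasma IFNγ ELISA; elevated if >7.2 pg/mL above medium tube and SI >1.25. ELISpot overnight on fresh PBMC.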

(pE)QPFPQPELPYPYPQ-amide ([pGlu]QPFPQPELPYPYPQ-NH2; SMILES CC(C)C[C@H](NC(=O)[C@H](CCC(=O)O)NC(=O)[C@@H]1CCCN1C(=O)[C@H](CCC(N)=O)NC(=O)[C@@H]1CCCN1C(=O)[C@H](Cc1ccccc1)NC(=O)[C@@H]1CCCN1C(=O)[C@H](CCC(N)=O)NC(=O)[C@@H]1CCC(=O)N1)C(=O)N1CCC[C@H]1C(=O)N[C@@H](Cc1ccc(O)cc1)C(=O)N1CCC[C@H]1C(=O)N[C@@H](Cc1ccc(O)cc1)C(=O)N1CCC[C@H]1C(=O)N[C@@H](CCC(N)=O)C(N)=O) [Peptide 16]
Percent of maximal response to individual gluten peptides, ELISp (gluten-reactive T cells [1]; Subject 3, Max. 18 SFU): 22 % of max
Percent of maximal response to individual gluten peptides, ELISp (gluten-reactive T cells [1]; Subject 4, Max. 36 SFU): 31 % of max
Percent of maximal response to individual gluten peptides, ELISp (gluten-reactive T cells [1]; Subject 6, Max. 16 SFU): 19 % of max
Percent of maximal response to individual gluten peptides, ELISp (gluten-reactive T cells [1]; Subject 8, Max. 17 SFU): 24 % of max
Percent of maximal response to individual gluten peptides, ELISp (gluten-reactive T cells [1]; Subject 10, Max. 11 SFU): 27 % of max
IFNγ ELISpot % max Mean (gluten-reactive T cells [1]): 24 % max
Percent of maximal response to individual gluten peptides, IFNg (gluten-reactive T cells [2]; Subject 2, Max. 116 pg/mL): 65 % of max
Percent of maximal response to individual gluten peptides, IFNg (gluten-reactive T cells [2]; Subject 3, Max. 799 pg/mL): 13 % of max
Percent of maximal response to individual gluten peptides, IFNg (gluten-reactive T cells [2]; Subject 4, Max. 136 pg/mL): 16 % of max
Percent of maximal response to individual gluten peptides, IFNg (gluten-reactive T cells [2]; Subject 6, Max. 72 pg/mL): 10 % of max
Percent of maximal response to individual gluten peptides, IFNg (gluten-reactive T cells [2]; Subject 7, Max. 17 pg/mL): 100 % of max
Percent of maximal response to individual gluten peptides, IFNg (gluten-reactive T cells [2]; Subject 8, Max. 47 pg/mL): 0 % of max
Percent of maximal response to individual gluten peptides, IFNg (gluten-reactive T cells [2]; Subject 9, Max. 67 pg/mL): 39 % of max
Percent of maximal response to individual gluten peptides, IFNg (gluten-reactive T cells [2]; Subject 10, Max. 229 pg/mL): 2 % of max
IFNγ WB MAGPIX % max Mean (gluten-reactive T cells [2]): 31 % max
activity relative to Peptide 14 in the cytokine release assays (gluten-reactive T cells [3]): no more than two-thirds as active as Peptide 14

(pE)PEQPIPEQPQPYPQQ-amide ([pGlu]PEQPIPEQPQPYPQQ-NH2; SMILES CC[C@H](C)[C@H](NC(=O)[C@@H]1CCCN1C(=O)[C@H](CCC(N)=O)NC(=O)[C@H](CCC(=O)O)NC(=O)[C@@H]1CCCN1C(=O)[C@@H]1CCC(=O)N1)C(=O)N1CCC[C@H]1C(=O)N[C@@H](CCC(=O)O)C(=O)N[C@@H](CCC(N)=O)C(=O)N1CCC[C@H]1C(=O)N[C@@H](CCC(N)=O)C(=O)N1CCC[C@H]1C(=O)N[C@@H](Cc1ccc(O)cc1)C(=O)N1CCC[C@H]1C(=O)N[C@@H](CCC(N)=O)C(=O)N[C@@H](CCC(N)=O)C(N)=O) [Peptide 3]
IFNγ ELISpot response relative to Peptide 14 5 μM (gluten-reactive T cells [1]; Peptide 3 10 μg/mL (5.3 μM)): only one-half
Percent of maximal response to individual gluten peptides, ELISp (gluten-reactive T cells [1]; Subject 3, Max. 18 SFU): 50 % of max
Percent of maximal response to individual gluten peptides, ELISp (gluten-reactive T cells [1]; Subject 4, Max. 36 SFU): 83 % of max
Percent of maximal response to individual gluten peptides, ELISp (gluten-reactive T cells [1]; Subject 6, Max. 16 SFU): 69 % of max
Percent of maximal response to individual gluten peptides, ELISp (gluten-reactive T cells [1]; Subject 8, Max. 17 SFU): 53 % of max
Percent of maximal response to individual gluten peptides, ELISp (gluten-reactive T cells [1]; Subject 10, Max. 11 SFU): 9 % of max
IFNγ ELISpot % max Mean (gluten-reactive T cells [1]): 53 % max
Percent of maximal response to individual gluten peptides, IFNg (gluten-reactive T cells [2]; Subject 2, Max. 116 pg/mL): 35 % of max
Percent of maximal response to individual gluten peptides, IFNg (gluten-reactive T cells [2]; Subject 3, Max. 799 pg/mL): 92 % of max
Percent of maximal response to individual gluten peptides, IFNg (gluten-reactive T cells [2]; Subject 4, Max. 136 pg/mL): 66 % of max
Percent of maximal response to individual gluten peptides, IFNg (gluten-reactive T cells [2]; Subject 6, Max. 72 pg/mL): 63 % of max
Percent of maximal response to individual gluten peptides, IFNg (gluten-reactive T cells [2]; Subject 7, Max. 17 pg/mL): 6 % of max
Percent of maximal response to individual gluten peptides, IFNg (gluten-reactive T cells [2]; Subject 8, Max. 47 pg/mL): 89 % of max
Percent of maximal response to individual gluten peptides, IFNg (gluten-reactive T cells [2]; Subject 9, Max. 67 pg/mL): 60 % of max
Percent of maximal response to individual gluten peptides, IFNg (gluten-reactive T cells [2]; Subject 10, Max. 229 pg/mL): 81 % of max
IFNγ WB MAGPIX % max Mean (gluten-reactive T cells [2]): 62 % max
whole blood IFNγ release relative to that stimulated by Peptide 14 (gluten-reactive T cells [2]; whole blood incubations after oral gluten challenge): one-third less
rank of activity among individual gluten peptides (gluten-reactive T cells [3]): second most active

(pE)LQPFPQPELPYPQPQ-amide ([pGlu]LQPFPQPELPYPQPQ-NH2; SMILES CC(C)C[C@H](NC(=O)[C@@H]1CCC(=O)N1)C(=O)N[C@@H](CCC(N)=O)C(=O)N1CCC[C@H]1C(=O)N[C@@H](Cc1ccccc1)C(=O)N1CCC[C@H]1C(=O)N[C@@H](CCC(N)=O)C(=O)N1CCC[C@H]1C(=O)N[C@@H](CCC(=O)O)C(=O)N[C@@H](CC(C)C)C(=O)N1CCC[C@H]1C(=O)N[C@@H](Cc1ccc(O)cc1)C(=O)N1CCC[C@H]1C(=O)N[C@@H](CCC(N)=O)C(=O)N1CCC[C@H]1C(=O)N[C@@H](CCC(N)=O)C(N)=O) [Peptide 1]
Percent of maximal response to individual gluten peptides, ELISp (gluten-reactive T cells [1]; Subject 3, Max. 18 SFU): 11 % of max
Percent of maximal response to individual gluten peptides, ELISp (gluten-reactive T cells [1]; Subject 4, Max. 36 SFU): 22 % of max
Percent of maximal response to individual gluten peptides, ELISp (gluten-reactive T cells [1]; Subject 6, Max. 16 SFU): 25 % of max
Percent of maximal response to individual gluten peptides, ELISp (gluten-reactive T cells [1]; Subject 8, Max. 17 SFU): 0 % of max
Percent of maximal response to individual gluten peptides, ELISp (gluten-reactive T cells [1]; Subject 10, Max. 11 SFU): 9 % of max
IFNγ ELISpot % max Mean (gluten-reactive T cells [1]): 13 % max
Percent of maximal response to individual gluten peptides, IFNg (gluten-reactive T cells [2]; Subject 2, Max. 116 pg/mL): 100 % of max
Percent of maximal response to individual gluten peptides, IFNg (gluten-reactive T cells [2]; Subject 3, Max. 799 pg/mL): 14 % of max
Percent of maximal response to individual gluten peptides, IFNg (gluten-reactive T cells [2]; Subject 4, Max. 136 pg/mL): 26 % of max
Percent of maximal response to individual gluten peptides, IFNg (gluten-reactive T cells [2]; Subject 6, Max. 72 pg/mL): 25 % of max
Percent of maximal response to individual gluten peptides, IFNg (gluten-reactive T cells [2]; Subject 7, Max. 17 pg/mL): 43 % of max
Percent of maximal response to individual gluten peptides, IFNg (gluten-reactive T cells [2]; Subject 8, Max. 47 pg/mL): 6 % of max
Percent of maximal response to individual gluten peptides, IFNg (gluten-reactive T cells [2]; Subject 9, Max. 67 pg/mL): 43 % of max
Percent of maximal response to individual gluten peptides, IFNg (gluten-reactive T cells [2]; Subject 10, Max. 229 pg/mL): 7 % of max
IFNγ WB MAGPIX % max Mean (gluten-reactive T cells [2]): 33 % max
activity relative to Peptide 14 in the cytokine release assays (gluten-reactive T cells [3]): no more than two-thirds as active as Peptide 14
rank of activity among individual gluten peptides (gluten-reactive T cells [3]): the most active of this group of related peptides
